Test system: not listed separately
Assay: Decrease in nuclear foci in human DM1 fibroblast for 24 hrs by fluorescent in situ hybridization assay
Format: functional
In the case of `CN(C)C/C=C/C(=O)Nc1cccc(C(=O)NCCc2cc3c(-c4cnn5ncccc45)ccnc3[nH]2)c1`, the IC50 is reported as 10000 nM.
With `CN(C)C/C=C/C(=O)N1CCC[C@@H](C(=O)N2CCC(c3cc4c(-c5cnn6ncccc56)ccnc4[nH]3)C2)C1` (stereo partly drawn) the IC50 was 1000 nM.
Molecule `C=CC(=O)N1CCC[C@H](C(=O)NCCc2cc3c(-c4cnn5ncccc45)c(Cl)cnc3[nH]2)C1` has an IC50 of 1000 nM.
`CN(C)C/C=C/C(=O)N1CC[C@@H](OCC(=O)N2CCC(c3cc4c(-c5cnn6ncccc56)ccnc4[nH]3)C2)C1` (stereo partly drawn) gave an IC50 of 1000 nM.
With `C=CC(=O)N1CCC[C@H]1C(=O)N1CC[C@@H](c2cc3c(-c4cnn5ncccc45)ccnc3[nH]2)C1` the IC50 was < 1000 nM.
`OCc1cc2c(-c3cnn4ncccc34)ccnc2[nH]1` gave an IC50 of 1000 nM.
`C=CC(=O)Nc1ccc(C(=O)N2CCN(Cc3cc4c(-c5cnn6ncccc56)ccnc4[nH]3)CC2)cc1` showed an IC50 of 1000 nM.
`C=C(C)C(=O)N1CCC[C@H]1C(=O)NCCc1cc2c(-c3cnn4ncccc34)ccnc2[nH]1` gave an IC50 of 10000 nM.
In the case of `C=CC(=O)N1CCC[C@H]1C(=O)OCCc1cc2c(-c3cnn4ncccc34)ccnc2[nH]1`, the IC50 is reported as < 1000 nM.
For `C=CC(=O)N1CCC[C@H]1C(=O)N1CCN(Cc2cc3c(-c4cnn5ncccc45)ccnc3[nH]2)CC1`, the IC50 was 10000 nM.
With `C=CC(=O)Nc1ccc(C(=O)N2CCC(c3cc4c(-c5cnn6ncccc56)ccnc4[nH]3)C2)cc1` (stereo not drawn) the IC50 was < 1000 nM.
In the case of `C=CC(=O)N1C[C@H](F)C[C@H]1C(=O)NCCc1cc2c(-c3cnn4ncccc34)ccnc2[nH]1`, the IC50 is reported as < 1000 nM.
For `C=CC(=O)Nc1ccc(C(=O)NCCc2cc3c(-c4cnn5ncccc45)ccnc3[nH]2)cc1`, the IC50 was < 1000 nM.
With `C=CC(=O)Nc1cccc(C(=O)N2CC[C@H](c3cc4c(-c5cnn6ncccc56)ccnc4[nH]3)C2)c1` the IC50 was < 1000 nM.
With `C=CC(=O)Nc1cccc(C(=O)NCCc2cc3c(-c4cnn5ncccc45)ccnc3[nH]2)c1` the IC50 was < 1000 nM.
With `NC(=O)c1cc2c(-c3cnn4ncccc34)ccnc2[nH]1` the IC50 was 1000 nM.
Molecule `CC(C)=CC(=O)N1CCC[C@H]1C(=O)NCCc1cc2c(-c3cnn4ncccc34)ccnc2[nH]1` has an IC50 of 1000 nM.
With `c1cc(-c2ccc3[nH]nnc3c2)c2cc[nH]c2n1` the IC50 was 10000 nM.
Molecule `CCC(=O)N1CCC[C@H]1C(=O)NCCc1cc2c(-c3cnn4ncccc34)ccnc2[nH]1` has an IC50 of 10000 nM.
In the case of `O=C(CCl)Nc1ccc(C(=O)N2CCC(c3cc4c(-c5cnn6ncccc56)ccnc4[nH]3)C2)cc1` (stereo not drawn), the IC50 is reported as < 1000 nM.
With `C=CC(=O)N1CCC[C@@H]1C(=O)NCCc1cc2c(-c3cnn4ncccc34)ccnc2[nH]1` the IC50 was < 1000 nM.
In the case of `C=CC(=O)Nc1cccc(C(=O)N2CCC(c3cc4c(-c5cnn6ncccc56)ccnc4[nH]3)C2)c1` (stereo not drawn), the IC50 is reported as < 1000 nM.
For `C=CC(=O)N1CCC[C@H](C(=O)NCCc2cc3c(-c4cnn5ncccc45)ccnc3[nH]2)C1`, the IC50 was < 1000 nM.
In the case of `c1cnn2ncc(-c3ccnc4[nH]ccc34)c2c1`, the IC50 is reported as < 1000 nM.
`COc1ccc2c(-c3ccnc4[nH]ccc34)cnn2n1` showed an IC50 of 10000 nM.
For `O=C([C@H]1CCCN1C(=O)CCl)N1CCC(c2cc3c(-c4cnn5ncccc45)ccnc3[nH]2)C1` (stereo partly drawn), the IC50 was < 1000 nM.
`C=CC(=O)N1CC2(CC2)C[C@H]1C(=O)NCCc1cc2c(-c3cnn4ncccc34)ccnc2[nH]1` gave an IC50 of 1000 nM.
With `CN(C)C/C=C/C(=O)Nc1ccc(C(=O)N2CCC(c3cc4c(-c5cnn6ncccc56)ccnc4[nH]3)C2)cc1` (stereo not drawn) the IC50 was < 1000 nM.
In the case of `C=CC(=O)N1CCCC[C@H]1C(=O)NCCc1cc2c(-c3cnn4ncccc34)ccnc2[nH]1`, the IC50 is reported as 1000 nM.
`CNC(=O)c1cc2c(-c3cnn4ncccc34)ccnc2[nH]1` showed an IC50 of 1000 nM.
In the case of `c1cc(-c2ccc3cn[nH]c3c2)c2cc[nH]c2n1`, the IC50 is reported as 10000 nM.
In the case of `C/C=C/C(=O)N1CCC[C@H]1C(=O)NCCc1cc2c(-c3cnn4ncccc34)ccnc2[nH]1`, the IC50 is reported as 1000 nM.
In the case of `O=C(CCl)Nc1cccc(C(=O)N2CC[C@H](c3cc4c(-c5cnn6ncccc56)ccnc4[nH]3)C2)c1`, the IC50 is reported as < 1000 nM.
With `C=CC(=O)Nc1ccc(C(=O)NCc2cc3c(-c4cnn5ncccc45)ccnc3[nH]2)cc1` the IC50 was 1000 nM.
`N#CN1CCC[C@H](C(=O)NCCc2cc3c(-c4cnn5ncccc45)ccnc3[nH]2)C1` gave an IC50 of 1000 nM.
In the case of `C=CC(=O)N1CCC1C(=O)NCCc1cc2c(-c3cnn4ncccc34)ccnc2[nH]1` (single isomer, unassigned), the IC50 is reported as < 1000 nM.
For `CC#CC(=O)N1CCC[C@H]1C(=O)NCCc1cc2c(-c3cnn4ncccc34)ccnc2[nH]1`, the IC50 was 1000 nM.
Molecule `C=CC(=O)N1CCC[C@@H](C(=O)NCCc2cc3c(-c4cnn5ncccc45)ccnc3[nH]2)C1` has an IC50 of 1000 nM.
For `C=CC(=O)N1CCC[C@H]1C(=O)NCCc1cc2c(-c3cnn4ncccc34)ccnc2[nH]1`, the IC50 was < 1000 nM.
Work on `C=CC(=O)Nc1cccc(C(=O)N2CCN(Cc3cc4c(-c5cnn6ncccc56)ccnc4[nH]3)CC2)c1` yielded an IC50 of 1000 nM.
`C=CC(=O)N1CC(C(=O)NCCc2cc3c(-c4cnn5ncccc45)ccnc3[nH]2)C1` showed an IC50 of 1000 nM.
For `C=CC(=O)N1CCC[C@@H]1C(=O)NCCc1cc2c(-c3cnn4ncccc34)c(Cl)cnc2[nH]1`, the IC50 was < 1000 nM.
For `C=CC(=O)Nc1cc(C(=O)N2CCC(c3cc4c(-c5cnn6ncccc56)ccnc4[nH]3)C2)ccc1OC` (stereo not drawn), the IC50 was < 1000 nM.
For `C#CC(=O)Nc1cccc(C(=O)N2CCC(c3cc4c(-c5cnn6ncccc56)ccnc4[nH]3)C2)c1` (stereo not drawn), the IC50 was < 1000 nM.
With `C[C@@H](Cl)C(=O)N1CCC[C@@H]1C(=O)N1CCC(c2cc3c(-c4cnn5ncccc45)ccnc3[nH]2)C1` (stereo partly drawn) the IC50 was 1000 nM.
Work on `C=CC(=O)NC(C)C(=O)NCCc1cc2c(-c3cnn4ncccc34)ccnc2[nH]1` (stereo not drawn) yielded an IC50 of 1000 nM.
`C=CC(=O)NC(Cc1ccccc1)C(=O)NCCc1cc2c(-c3cnn4ncccc34)ccnc2[nH]1` (stereo not drawn) showed an IC50 of 1000 nM.
In the case of `CC(C)(CCl)C(=O)N1CCC[C@H]1C(=O)NCCc1cc2c(-c3cnn4ncccc34)ccnc2[nH]1`, the IC50 is reported as 10000 nM.
With `C=CC(=O)N1CCC[C@H]1C(=O)NCCc1cc2c(-c3cnn(C)c3)ccnc2[nH]1` the IC50 was 10000 nM.
Work on `CN(C)C/C=C/C(=O)N1CCC(CC(=O)N2CCC(c3cc4c(-c5cnn6ncccc56)ccnc4[nH]3)C2)CC1` (stereo not drawn) yielded an IC50 of 10000 nM.
`c1ccc(Cc2cc3c(-c4cnn5ncccc45)ccnc3[nH]2)cc1` gave an IC50 of 10000 nM.
With `CN(C)C/C=C/C(=O)N1CCC[C@H]1C(=O)NCCc1cc2c(-c3cnn4ncccc34)ccnc2[nH]1` the IC50 was 10000 nM.
For `O=C(CCl)Nc1cccc(C(=O)N2CCC(c3cc4c(-c5cnn6ncccc56)ccnc4[nH]3)C2)c1` (stereo not drawn), the IC50 was < 1000 nM.
In the case of `Cc1cc2c(-c3cnn4ncccc34)ccnc2[nH]1`, the IC50 is reported as < 1000 nM.
With `C=CC(=O)Nc1ccc(C(=O)N2CCC(c3cc4c(-c5c[nH]c6ccccc56)ccnc4[nH]3)C2)cc1` (stereo not drawn) the IC50 was 1000 nM.
In the case of `C=CC(=O)N1CCOC[C@@H]1C(=O)NCCc1cc2c(-c3cnn4ncccc34)ccnc2[nH]1`, the IC50 is reported as < 1000 nM.
In the case of `O=C(CCl)Nc1cccc(C(=O)N2CC[C@@H](c3cc4c(-c5cnn6ncccc56)ccnc4[nH]3)C2)c1`, the IC50 is reported as < 1000 nM.

Molecular target: CDK12/Cyclin K (Homo sapiens, UniProt Q9NYV4)
Sequence (O75909 whole entry): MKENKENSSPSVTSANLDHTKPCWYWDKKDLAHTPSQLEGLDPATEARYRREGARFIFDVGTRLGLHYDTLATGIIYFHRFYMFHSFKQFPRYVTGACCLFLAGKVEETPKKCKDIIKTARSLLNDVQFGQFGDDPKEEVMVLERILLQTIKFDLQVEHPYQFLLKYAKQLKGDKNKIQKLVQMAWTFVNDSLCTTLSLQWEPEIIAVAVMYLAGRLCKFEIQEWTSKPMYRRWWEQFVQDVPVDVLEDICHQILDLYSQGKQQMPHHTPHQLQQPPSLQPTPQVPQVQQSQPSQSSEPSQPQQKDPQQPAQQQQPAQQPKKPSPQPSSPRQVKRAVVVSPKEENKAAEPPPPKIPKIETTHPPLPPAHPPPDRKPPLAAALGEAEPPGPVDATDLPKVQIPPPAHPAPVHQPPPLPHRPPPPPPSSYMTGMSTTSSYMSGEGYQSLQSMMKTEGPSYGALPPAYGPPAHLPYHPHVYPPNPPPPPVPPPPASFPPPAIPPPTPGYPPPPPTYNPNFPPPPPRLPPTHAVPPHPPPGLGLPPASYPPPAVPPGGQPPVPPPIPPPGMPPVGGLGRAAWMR
Sequence (Q9NYV4 whole entry): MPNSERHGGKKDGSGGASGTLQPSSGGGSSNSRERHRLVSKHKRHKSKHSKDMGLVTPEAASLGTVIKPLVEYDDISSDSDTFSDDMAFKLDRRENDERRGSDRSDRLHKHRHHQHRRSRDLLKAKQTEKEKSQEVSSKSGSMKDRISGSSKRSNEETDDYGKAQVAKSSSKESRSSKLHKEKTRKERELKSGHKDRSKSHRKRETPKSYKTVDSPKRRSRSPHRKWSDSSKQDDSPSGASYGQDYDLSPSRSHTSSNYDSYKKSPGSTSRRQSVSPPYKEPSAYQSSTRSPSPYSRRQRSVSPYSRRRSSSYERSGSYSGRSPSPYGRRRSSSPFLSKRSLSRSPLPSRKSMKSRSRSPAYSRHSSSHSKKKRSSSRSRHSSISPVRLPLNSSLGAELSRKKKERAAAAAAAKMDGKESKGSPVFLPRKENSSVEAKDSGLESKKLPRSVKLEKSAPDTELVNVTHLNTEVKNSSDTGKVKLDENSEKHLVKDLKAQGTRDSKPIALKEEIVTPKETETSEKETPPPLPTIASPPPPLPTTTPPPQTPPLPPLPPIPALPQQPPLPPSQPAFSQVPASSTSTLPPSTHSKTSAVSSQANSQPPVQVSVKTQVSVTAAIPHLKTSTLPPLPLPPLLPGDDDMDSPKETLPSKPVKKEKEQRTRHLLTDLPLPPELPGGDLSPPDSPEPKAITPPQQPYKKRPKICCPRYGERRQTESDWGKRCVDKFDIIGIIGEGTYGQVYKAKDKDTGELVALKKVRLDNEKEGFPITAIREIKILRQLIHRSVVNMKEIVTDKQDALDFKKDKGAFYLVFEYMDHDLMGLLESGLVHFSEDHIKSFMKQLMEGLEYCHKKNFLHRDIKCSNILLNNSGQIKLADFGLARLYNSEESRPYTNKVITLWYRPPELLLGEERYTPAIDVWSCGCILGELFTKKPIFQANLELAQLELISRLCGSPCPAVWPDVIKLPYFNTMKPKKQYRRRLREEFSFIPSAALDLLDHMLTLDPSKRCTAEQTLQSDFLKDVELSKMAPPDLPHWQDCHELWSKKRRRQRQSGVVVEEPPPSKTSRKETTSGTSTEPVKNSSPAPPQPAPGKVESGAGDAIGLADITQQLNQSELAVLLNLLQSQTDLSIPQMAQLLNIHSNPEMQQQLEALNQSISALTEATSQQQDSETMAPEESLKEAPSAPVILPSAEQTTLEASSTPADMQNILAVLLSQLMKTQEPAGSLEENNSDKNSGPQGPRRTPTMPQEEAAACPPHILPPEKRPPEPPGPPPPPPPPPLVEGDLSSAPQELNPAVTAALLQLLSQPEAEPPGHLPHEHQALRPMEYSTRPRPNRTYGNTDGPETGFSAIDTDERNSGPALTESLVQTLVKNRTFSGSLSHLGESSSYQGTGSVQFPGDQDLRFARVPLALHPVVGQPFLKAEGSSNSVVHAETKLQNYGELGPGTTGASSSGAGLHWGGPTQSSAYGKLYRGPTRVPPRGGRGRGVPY
Assay: Inhibition of CDK12/cyclinK (unknown origin) using RBER-IRStide as substrate and in presence of ATP preincubated for 30 mins followed by addition of substrate measured after 1 hr by ADP-Glo reagent assay
Format: protein-complex assay
For `c1cnn2ncc(-c3ccnc4[nH]c(CN5CCNCC5)cc34)c2c1`, the IC50 was ≥ 1000 nM.

Reference: ChEMBL document CHEMBL4742398, “Heterocyclyl substituted pyrrolopyridines that are inhibitors of the cdk12 kinase” (2019)
